# According to patent publication US20260364186A1, “Chemical Conjugates, Compositions, and Methods of Preparation and Use Thereof” (Transfection Holdings Limited, priority 2022, published 2026):
# “Also recorded” adds a separate entry of the source.
# Assays:
# [1] = system: NZM11 melanoma cancer cell line; test: FACS uptake of BODIPY FL conjugates, 50 nM, 5 min (Example 1); type: cell-based, human
# Procedure: FIG. 1. Conjugate compounds coupled to BODIPY FL were tested for uptake using 50 nM each conjugate and 5 minute incubation with HEM (human epidermal melanocytes) and melanoma cell line NZM11 (BRAF V600E mutant metastatic melanoma). Mean fluorescent intensities (MFI). For these tests, n=300-500, mean±SD. Results were from a single experiment done in triplicate. Cells were sorted by FACS.
# Materials and methods: NZM11 is an adherent metastatic melanoma cell derived from a patient with a subcutaneous lesion on their mid back. This human metastatic melanoma is identified with code CBA-1398 from Cell bank Australia. […] Cells of NZM11 diluted in MEMα media and cells of HEMnDP (primary melanocyte cell line) diluted in media 254 were left to settle in 96-wells microplate for 48 hours. 10 μL of 10 mM stock solutions in DMSO from 138 and pantothenic acid/pantothenic acid derivatives coupled to BODIPY were diluted with HBSS to afford 100 nM solution. Then, 100 nM compounds and DMSO solutions were diluted 1:1 with MEMα media for NZM11 and media 254 for HEMnDP to afford 50 nM solutions. After the 48 hour settle time, media was removed from the cells and 200 μL of 50 nM media solutions were poured to each well and incubated for 5 minutes at 37 °C. […] The FACS results output represented the mean of the fluorescence intensities (in arbitrary units) measured for cells sorted in every sample
# [2] = system: mouse embryonic fibroblasts MEF; test: FACS uptake of BODIPY FL conjugates (Example 4); type: cell-based; conditions: 200 nM, 5 min, S enantiomer vs R
# Procedure: FIG. 4B: Conjugate compounds coupled to BODIPY FL were tested for uptake using 200 nM each conjugate and 5 minute incubation with mouse embryonic fibroblasts MEF. Mean fluorescent intensities (MFI). 1,000 cells were sorted by FACS.
# Fibroblasts are ubiquitous mesenchymal cells that are thought to play important roles in wound repair and healing, and serve as reservoirs of multipotent progenitors capable of repopulating depleted cell compartments. Primary mouse embryonic fibroblast (MEF) cultures consist of highly heterogeneous populations of distinct cell types. Singhal, P. K., et al., 2016. MEF cells have a limited growth capacity and on prolonged passaging spontaneously immortalize at a low frequency. In contrast to transformation of primary MEF cells that requires the presence of two cooperating oncogenes, immortalised MEF cells can be transformed by a single oncogene (Ras) resulting in a loss of contact inhibition, anchorage-independent growth, and tumour formation in nude mice. Studies of MEF cells have played an important role in the elucidation of the molecular mechanisms underlying cellular immortalization, transformation, and tumorigenesis. Additionally, utilization of MEF cells disrupted for specific genes has provided a powerful tool to analyse the genetic regulation of these cellular processes. Sun and Taneja, 2007. […]
# [3] = system: NZM011, NZM009, NZM012, NZM022 and NZM077 cells; test: Flow cytometry uptake into metastatic melanoma lines (Example 11); type: cell-based, human; conditions: 200 nM, 30 minutes, five cell lines
# Procedure: FIG. 11: Uptake for compounds 124, 126, and 132 at 200 nM and 30 minute incubation with melanoma cell lines: NZM12 (NZM012) (BRAF V600E mutant metastatic melanoma, homozygous deletion CDKN2A and low invasive cell line), NZM77 (NZM077) (BRAF V600E mutant metastatic melanoma and missense NF1), NZM22 (NZM022) (BRAF G466A mutant metastatic melanoma, P53 241S/T mutant, NF1 non-frameshift insertion and PTEN epigenetic silencing). NZM9 (NZM009) (P53 179C/T mutant and homozygous silencing CDKN2A). NZM11 (NZM011) (BRAF V600E mutant metastatic melanoma and homozygous deletion CDKN2A), as positive control. Mean fluorescent intensities (MFI). 1,500-2,000 cells were obtained. Bars represent mean±SD. Results are from a single experiment done in triplicate. Cells were analysed by FACS.
# Methods: For screening, NZM011, NZM009, NZM012, NZM022 and NZM077 cells were suspended at 250 cells per μL in MEMα media and 200 μL was dispensed into 96 well plates. The cells were left to settle for 24 hours for NZM011, NZM012 and NZM077 and 48 hours for NZM009 and NZM022 at 37 °C, 5% O2, 5% CO2. Before addition to the cells, 10 μL of 10 mM stock solutions in DMSO of compounds 124, 126, and 132 were diluted with 1% FBS MEMα media to give a 200 nM solution.
# After the appropriate settle time, the media was removed from the 96 well plates and 200 μL of 200 nM conjugate solutions and DMSO control were dispensed to each well (in triplicate) and incubated for 30 minutes at 37 °C, 5% O2, 5% CO2. After 30 minutes, the media was removed and cells washed with PBS. Next, 100 μL of TrypLE trypsin (ThermoFisher Scientific) was added to each well and incubated for 5 minutes at 37 °C. After this, 150 μL of MEMα media (plus 1% FBS for NZM011, NZM012 and NZM077; plus 5% FBS for NZM009 and NZM022) were added. Cells were analysed by flow cytometry using a FACS biosort and FITC filter. Flow cytometry results represent the mean of the fluorescence intensities (in arbitrary units) measured for cells sorted in every sample.
# [4] = system: Jurkat cells; test: Flow cytometry time course of uptake (Example 12); type: cell-based, human; conditions: 200 nM
# Procedure: FIG. 12: Time course of uptake for compounds 124, 126, and 132 at 200 nM after 5, 30 or 60 minute incubation with Jurkat cells. Mean fluorescent intensities (MFI). 1,000 cells were sorted by FACS. Bars represent mean±SD. Results represents a single experiment done in triplicate.
# Materials and methods: For this study, 7.7×10^5 Jurkat cells were centrifuged for 5 minutes at 2500 RPM. The supernatant was removed and the cells were diluted in RPMI media (supplemented with 1% FBS+1% penicillin-streptomycin) to 400 cells/μL. Next, 28 μL of 100 μM stock solutions from compound 124, 126, or 132 were diluted with 6972 μL of RPMI media (supplemented with 1% FBS+1% penicillin-streptomycin) to give a 400 nM solution. Following this, 250 μL of conjugate solutions (giving a 200 nM final concentration) and 250 μL of cell suspensions were then added to each well in a 96 well plate. In addition, 250 μL of media only was added to the DMSO control wells. Incubation was carried out for 5, 30 and 60 minutes at 37 °C in triplicate wells for each compound and time point.
# After incubation, cells were centrifuged for 1.5 minutes at 5000 RCF. Supernatant was removed and the cell pellet re-suspended in 200 μL fresh RPMI media, transferred to 96 well-plate and each cell suspension analysed by flow cytometry. Flow cytometry results represent the mean of the fluorescence intensities (in arbitrary units) measured for cells sorted in every sample.
# [5] = system: glioblastoma cells; test: Protein content after 48 hour incubation (Example 9); type: cell-based, human; conditions: 5, 25 and 100 μM
# Procedure: FIGS. 10A-10B: Protein content of glioblastoma cells after 48 hour incubation with compound 138 or PA at 5, 25 and 100 μM final concentration. To indicates protein levels at the beginning of the test. Control indicates protein levels in cells which were incubated for 48 hours without exposure to 138 or PA.
# (§1) Glioblastoma cells were used to determine viability and growth by measurement of protein levels. Protein content of glioblastoma cells was determined after 48 hour incubation with compound 138 or PA at 5, 25 and 100 μM final concentration. For To, protein levels were determined at the start of the test (before addition of test compounds). For the control, protein levels were determined for cells incubated for 48 hours in the absence of the test compounds. Astrocytes were used as a non-cancer cell line control. U87: this cell line has epithelial morphology that was isolated from malignant gliomas from a patient, likely with glioblastoma. SF188: this glioblastoma cell line was derived from the left temporal lobe tumour of a patient. U251: this cell line expresses epidermal growth factor receptor (EGFR) receptors, for inhibition studies. LN229: This cell line has a mutation on TP53; Simple; p.Pro98Leu. LN18: This cell line is negative for glial fibrillary acidic proteins and S100 (S-100) protein. […] GUVW cells were also utilised.
# [6] = system: NZM11 (BRAF V600E mutant metastatic melanoma) cells; test: Sulforhodamine B (SRB) assay of viability / proliferation, auranofin conjugates (Example 8); type: cell-based, human; conditions: 200 μM, 48 hours
# Procedure: FIG. 8: Effect of 136 and 137 (auranofin conjugates) on viability of NZM11 melanoma cells. Cells were incubated with 136 and 137 at 10 μM final concentration and kept at 37 °C for 48 hours. Pantothenic acid (PA), CJ-15,801, and biotin were tested at 200 μM final concentration. […] Two batches of auranofin were tested at 10 μM final concentration.
# FIG. 9: The viability data from FIG. 8 was normalised to the treatment plate and DMSO control and plotted as a percentage of cell growth. Individual data points represent technical replicates. Curve indicates non-linear regression slope, which allows determination of IC50 values.
# Materials and methods: NZM11 cells were cultured in MEMα media with an initial count of 1020 cells/μL. The cells were then diluted to get 25 cells per μL and 200 μL of this suspension (5000 cells per well), dispensed into 96 well plates and left to settle for 24 hours. 10 mM stock solutions of 136, 137, and auranofin were diluted with 1% FBS MEMα media to give 10 nM, 30 nM, 100 nM, 300 nM, 1 μM, 3 μM, 10 μM, 30 μM and 100 μM solutions. After 24 hours the media was removed from the 96 well plates. To individual wells 200 μL of each dilution were dispensed in triplicate for three groups (136, 137, and auranofin): 1% FBS MEMα media only (DMSO control), 10 nM, 30 nM, 100 nM, 300 nM, 1 μM, 3 μM, 10 μM, 30 μM and 100 μM. The cells were incubated at 37 °C, 5% 02 and 5% CO2 for 48 hours.
# In order to test the potency of 136 and 137, the IC50 values were calculated for these auranofin conjugates. For analysis of the treatment plate (Tz) a SRB assay was utilised. For this assay, 50 μL of 50% (w/v) ice-cold trichloroacetic acid (TCA) was added to each well. To achieve this, 5 g of TCA was made up to 10 mL with milliQ H2O. This was cooled on ice. Incubation was carried out for 1 hour at 4 °C to fix cells. TCA and media were removed from cells. Five milliQ washes were carried out and the plate was left to air dry. Next, 50 μL of 0.4% SRB solution (prepared in 1% acetic acid) was added to each well and incubated for 10 minutes at room temperature. The SRB solution was removed and five milliQ washes were carried out. Then, 100 μL of 10 mM Tris solution was added to each well, and the dye was solubilised. Absorbance at 515 nm was read on plate reader. Data was normalized to Tz plate, as per NCI60 screening method (https://dtp.cancer.gov/discovery_development/nci-60/methodology.htm).
# [7] = system: astrocytes; test: Protein content after 48 hour incubation (Example 9); type: cell-based, human; conditions: 5, 25 and 100 μM
# Procedure: as §1
# [8] = system: melanoma cell lines; conditions: previous results, read-out: concentration showing inhibition of 50% of the population; cited from earlier work
smiles,measurement,setting,value
"CC1=CC(C)=[N+]2C1=Cc1ccc(CCCn3cc(CCNC(=O)/C=C/NC(=O)[C@@H](O)C(C)(C)CO)nn3)n1[B-]2(F)F [Compound 126, (E)-N-((((3-[4,4-Difluoro-5,7-dimethyl-4-bora-3a,4a-diaza-s-indacene-3-yl]propyl)-1H-1,2,3-triazol-4-yl)ethylamino)-3-oxoprop-1-enyl)-2,4-dihydroxy-3,3-dimethylbutanamide]",mean intensity compared to the 124 conjugate,[1],25%
same,lower intensities than the R derivatives,[2],around 50%
same,times less uptake than 124,[3],5-12 times
same,time of highest uptake,[4],60 min
same,times lower than 124 uptake,[4]; 60 minutes,4 times
same,uptake increase compared to DMSO control,[4]; 60 minutes,three times higher
"CC(C)(CO)[C@@H](O)C(=O)N/C=C/C(=O)O [Compound 138, (R,E)-3-(2,4-Dihydroxy-3,3-dimethylbutanamido)acrylic acid]",protein content / protein levels,[5],little to no effect on protein levels
same,viability / cell proliferation,[6],little to no effect on cell proliferation
same,protein content / protein levels,[7],little to no effect on protein levels
CC[P](CC)(CC)=[Au][S][C@@H]1O[C@H](COC(C)=O)[C@@H](OC(C)=O)[C@H](OC(C)=O)[C@H]1OC(C)=O [auranofin],IC50,[8],≤ 500 nM
CC(C)(CO)[C@@H](O)C(=O)NCCC(=O)O [pantothenic acid],protein content / protein levels,[5],comparable content of proteins with the control; also recorded: little to no effect on protein levels
same,protein content / protein levels,[7],comparable content of proteins with the control; also recorded: little to no effect on protein levels
